Assay results from patent US7012041B2, “Phenylpyridazinones” (Bayer AG, priority 1995, dated 2006).

Legend:
Assay type in all cases: in vivo
[1] = test system: Chenopodium; experiment: Pre-emergence test/greenhouse; details: after three weeks
Description: (§1) • Solvent: 5 parts by weight of acetone • Emulsifier: 1 part by weight of alkylaryl polyglycol ether
(§2) To produce a suitable preparation of active compound, 1 part by weight of active compound is mixed with the stated amount of solvent, the stated amount of emulsifier is added and the concentrate is diluted with water to the desired concentration.
(§3) Seeds of the test plants are sown in normal soil. After 24 hours, the soil is watered or sprayed with the preparation of the active compound. It is advantageous to keep the amount of water per unit area constant. The concentration of the active compound in the preparation is immaterial, only the amount of active compound applied per unit area matters.
(§4) After three weeks, the degree of damage to the plants is rated in % damage by comparison with the development of the untreated control.
(§5) The figures denote: • 0%=no effect (like untreated control) • 100%=total destruction

[2] = test system: Galinsoga; experiment: Pre-emergence test/greenhouse; details: after three weeks
Description: as §1, §2, §3, §4, §5

[3] = test system: Abutilon; experiment: Pre-emergence test/greenhouse; details: for % damage Abutilon: after three weeks; for activity against Abutilon (% damage): application rate between 125 and 500 g/ha, span over the named compounds
Description: as §1, §2, §3, §4, §5

[4] = test system: Solanum; experiment: Pre-emergence test/greenhouse; details: after three weeks
Description: as §1, §2, §3, §4, §5

[5] = test system: Sunflower; experiment: Pre-emergence test/greenhouse; details: after three weeks
Description: as §1, §2, §3, §4, §5

[6] = test system: Maize; experiment: Pre-emergence test/greenhouse; details: after three weeks
Description: as §1, §2, §3, §4, §5

[7] = test system: Amaranthus; experiment: Post-emergence test/greenhouse; details: after three weeks
Description: as §1, §2
(§6) Test plants which have a height of 5–15 cm are sprayed with the preparation of the active compound in such a way as to apply the particular amounts of active compound desired per unit area.
as §4, §5

[8] = test system: Wheat; experiment: Post-emergence test/greenhouse; details: after three weeks
Description: as §1, §2, §6, §4, §5

[9] = test system: Chenopodium; experiment: Post-emergence test/greenhouse; details: after three weeks
Description: as §1, §2, §6, §4, §5

[10] = test system: Datura; experiment: Post-emergence test/greenhouse; details: after three weeks
Description: as §1, §2, §6, §4, §5

[11] = test system: Polygonum; experiment: Post-emergence test/greenhouse; details: after three weeks
Description: as §1, §2, §6, §4, §5

[12] = test system: Veronica; experiment: Post-emergence test/greenhouse; details: after three weeks
Description: as §1, §2, §6, §4, §5

SMILES: C#CC(C)Oc1cc(-n2ncc(C)cc2=O)c(F)cc1C#N (centres unmarked) [Example 8, 2-(2-fluoro-4-cyano-5-but-1-ine-3-yl-oxy-phenyl)-5-methyl-pyridazin-3-one]
- % damage Chenopodium ([1]; 250 g ai/ha): 100%
- % damage Galinsoga ([2]; 250 g ai/ha): 100%
- % damage Abutilon ([3]; 250 g ai/ha): 100%
- activity against Abutilon (% damage) [3]: 100%
- % damage Solanum ([4]; 250 g ai/ha): 100%
- % damage Sunflower ([5]; 250 g ai/ha): 0%
- % damage Maize ([6]; 250 g ai/ha): 0%
- % damage Amaranthus ([7]; 60 g ai/ha): 90%
- % damage Wheat ([8]; 60 g ai/ha): 0%
- % damage Chenopodium ([9]; 60 g ai/ha): 95%
- % damage Datura ([10]; 60 g ai/ha): 100%
- % damage Polygonum ([11]; 60 g ai/ha): 100%
- % damage Veronica ([12]; 60 g ai/ha): 100%

SMILES: C#CC(CC)Oc1cc(-n2nc(C)ccc2=O)c(F)cc1C#N (centres unmarked) [Example 29]
- % damage Chenopodium ([1]; 500 g ai/ha): 100%
- % damage Galinsoga ([2]; 500 g ai/ha): 100%
- % damage Abutilon ([3]; 500 g ai/ha): 100%
- activity against Abutilon (% damage) [3]: 100%
- % damage Solanum ([4]; 500 g ai/ha): 100%
- % damage Sunflower ([5]; 500 g ai/ha): 0%
- % damage Maize ([6]; 500 g ai/ha): 0%

SMILES: Nc1cnn(-c2ccccc2)c(=O)c1Cl [(A), 5-Amino-4-chloro-2-phenyl-pyridazin-3-one, reference compound]
- % damage Chenopodium ([1]; 500 g ai/ha): 50%
- % damage Abutilon ([3]; 500 g ai/ha): 20%
- % damage Solanum ([4]; 500 g ai/ha): 40%
- % damage Sunflower ([5]; 500 g ai/ha): 100%
- % damage Maize ([6]; 500 g ai/ha): 0%

SMILES: CCS(=O)(=O)Nc1cc(-n2ncc(C)cc2=O)c(F)cc1C#N [Example 31]
- % damage Galinsoga ([2]; 250 g ai/ha): 80%
- % damage Abutilon ([3]; 250 g ai/ha): 100%
- activity against Abutilon (% damage) [3]: 100%
- % damage Solanum ([4]; 250 g ai/ha): 100%
- % damage Sunflower ([5]; 250 g ai/ha): 0%
- % damage Maize ([6]; 250 g ai/ha): 0%
- % damage Amaranthus ([7]; 60 g ai/ha): 100%
- % damage Wheat ([8]; 60 g ai/ha): 5%
- % damage Chenopodium ([9]; 60 g ai/ha): 80%
- % damage Datura ([10]; 60 g ai/ha): 100%
- % damage Polygonum ([11]; 60 g ai/ha): 90%
- % damage Veronica ([12]; 60 g ai/ha): 90%

SMILES: C#CCOc1cc(-n2ncc(C)cc2=O)c(F)cc1C#N [Example 37]
- % damage Amaranthus ([7]; 125 g ai/ha): 100%
- % damage Wheat ([8]; 125 g ai/ha): 20%
- % damage Chenopodium ([9]; 125 g ai/ha): 100%
- % damage Datura ([10]; 125 g ai/ha): 100%
- % damage Polygonum ([11]; 125 g ai/ha): 100%
- % damage Veronica ([12]; 125 g ai/ha): 100%

SMILES: C#CCOc1cc(-n2nc(C)ccc2=O)c(F)cc1C#N [Example 7, 2-(2-fluoro-4-cyano-5-propargyloxy-phenyl)-6-methyl-pyridazin-3-one]
- % damage Chenopodium ([1]; 250 g ai/ha): 100%
- % damage Galinsoga ([2]; 250 g ai/ha): 95%
- % damage Abutilon ([3]; 250 g ai/ha): 100%
- activity against Abutilon (% damage) [3]: 100%
- % damage Solanum ([4]; 250 g ai/ha): 100%
- % damage Sunflower ([5]; 250 g ai/ha): 20%
- % damage Maize ([6]; 250 g ai/ha): 0%

SMILES: Cc1cnn(-c2cc(F)c(C#N)cc2F)c(=O)c1 [Example 3, 2-(2,5-difluoro-4-cyano-phenyl)-5-methyl-pyridazin-3-one]
- % damage Galinsoga ([2]; 250 g ai/ha): 100%
- % damage Abutilon ([3]; 250 g ai/ha): 100%
- activity against Abutilon (% damage) [3]: 100%
- % damage Solanum ([4]; 250 g ai/ha): 90%
- % damage Sunflower ([5]; 250 g ai/ha): 0%
- % damage Maize ([6]; 250 g ai/ha): 0%
